target: T1, caspase-1 (Homo sapiens, UniProt P29466); test: Irreversible inhibitor kinetic assay (progress curve), caspase-1, substrate Ac-WEHD-AMC; assay type: biochemical; conditions: casp-1; duplicate, SD included
T1 construct: purchased EMD Biosciences (San Diego, Calif.)
T1 sequence (P29466 120-297 limits assumed): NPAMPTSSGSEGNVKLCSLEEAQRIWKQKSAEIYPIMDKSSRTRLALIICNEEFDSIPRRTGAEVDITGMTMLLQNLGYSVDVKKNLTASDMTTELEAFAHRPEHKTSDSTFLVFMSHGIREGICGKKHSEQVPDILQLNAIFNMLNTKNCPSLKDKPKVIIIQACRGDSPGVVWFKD
T1 sequence (P29466 317-404 limits assumed): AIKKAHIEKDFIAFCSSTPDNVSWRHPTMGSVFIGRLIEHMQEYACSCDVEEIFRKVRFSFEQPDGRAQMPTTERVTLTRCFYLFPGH
From the text: Caspases-3, -6, -7, -8, and -9 were provided by Guy Salvesen's laboratory at the Burnham Institute (La Jolla, Calif.). Caspase-1 was purchased from EMD Biosciences (San Diego, Calif.) and Caspase-2 was purchased from Biomol International (Plymouth Meeting, Pa.). Caspase substrates Ac-DEVD-AMC, Ac-VDVAD-AFC, and Ac-LEHD-AFC were purchased from EMD Biosciences (San Diego, Calif.) and Ac-VDVAD-AMC was purchased from Biomol International (Plymouth Meeting, Pa.). The proteolytic cleavage of N-acyl aminocoumarins by caspases was conducted in Dynatech Microfluor fluorescence 96-well microtiter plates, and readings were taken on a Molecular Devices Spectra Max Gemini XS instrument. The excitation wavelength was 370 nm and the emission wavelength was 455 nm for AMCA substrates, the excitation wavelength was 355 nm and the emission wavelength was 450 nm for peptidyl AMC substrates, and the excitation wavelength was 430 nm and the emission wavelength was 535 nm for peptidyl AFC substrates.
The kinact/Ki for inhibitors were determined under pseudo-first order conditions using the progress curve method (Eckici et al. (2006) J. Med. Chem., 49: 5728-5749; Bieth (1995) Meth. Enzymol., 248: 59-84). Assay wells contained a mixture of inhibitor and AMC or AFC substrate in buffer. Aliquots of caspase were added to each well to initiate the assay. Hydrolysis of the AMC or AFC substrate was monitored fluorometrically for 45 min. To determine the inhibition parameters, time points for which the control ([I]=0) was linear were used. For each inhibitor, a kobs was calculated for at least four different concentrations of inhibitors via a nonlinear regression of the data according to the equation P=(vi/kobs)[1−exp(−kobst) (where product formation=P, […], and the first-order rate constant=kobs). If kobs varied linearly with [I], then the association constant kass was determined by linear regression analysis using kobs=(kass[I])/(1+[S]/Km) where [S] is the concentration of the substrate. […] Inhibition was measured in duplicate and the average of is reported. […]

kinact/Ki | SMILES
243,250 ± 350 s^−1/M^−1 | C[C@@](NC(=O)CCCC(=O)O)(c1cn([C@@H](CC(=O)O)C(=O)COc2c(F)c(F)cc(F)c2F)nn1)C1CCCCC1 [MJL-002i]
55,200 ± 200 s^−1/M^−1 | C[C@@](NC(=O)Cc1ccccc1)(c1cn([C@@H](CC(=O)O)C(=O)COc2c(F)c(F)cc(F)c2F)nn1)C1CCCCC1 [MJL-003i]
55,200 ± 2,600 s^−1/M^−1 | C[C@@](NS(=O)(=O)Cc1ccccc1)(c1cn([C@@H](CC(=O)O)C(=O)COc2c(F)c(F)cc(F)c2F)nn1)C1CCCCC1 [MJL-001i]
